Test results reported in US20230242582A1, “NOVEL ALPHA-HELICAL DOUBLE-SIDED CELL PENETRATING PEPTIDE AND USE THEREOF” (CAMP THERAPEUTICS INC., priority 2020, published 2023).
Positions of bridges follow the written chain, without caps; N, C: chain ends. Non-standard residues stand in square brackets, D forms with d. Residues, ends and D or L forms follow the SMILES beside them. Chains are numbered I, II in the order given. tBuAla = CC(C)(C)C[C@H](N)C(=O)O; hCys = N[C@@H](CCS)C(=O)O

What was measured:
HeLa cells [1] = assay: Cell-penetrating ability of fluorescently labeled dimeric peptides, flow cytometry; assay type: cell-based, human; conditions: for ratio of cell-penetrating ability to cytotoxicity (IC50^−1): at 62.5 nM, FIG. 6A
Method: During preparation of CPPs in dimeric form shown in Tables 1 to 3, one monomer thereof was prepared in a form where 5-TAMRA fluorescence was attached to the N-terminus, instead of acetyl. A monomer with acetyl and a monomer with 5-TAMRA fluorescence were mixed in a molar ratio of 1:1, and subjected to an oxidation condition in air to produce a dimeric form in which only one fluorescence was labeled per dimer molecule. Then, cell-penetrating ability of each dimer was identified. Each fluorescently labeled peptide was used to treat HeLa cells (5×10^4 cells/well), which are human-derived cells, and a ratio of the number of cells with fluorescence to the total number of cells was obtained through flow cytometry.
FIGS. 4B to 4D illustrate results obtained by treating cells with respective dimers at the same concentration (62.5 nM), measuring fluorescence intensity of the cells by flow cytometry, and relatively comparing the fluorescence intensity.
Based on cell-penetrating ability and cytotoxicity of the dimeric peptides of the present disclosure, correlation therebetween was identified. Cytotoxicity (IC50^−1) and cell-penetrating ability of the respective peptides were identified at 62.5 nM according to the methods described in Examples 5 and 6, and then graphically represented.

HeLa cells [2] = assay: Cytotoxicity of dimeric peptides, WST-1 assay; assay type: cell-based, human; conditions: for ratio: IC50 relative to LK-3, HeLa cells
Method: Cytotoxicity was identified using WST-1 assay by treating HeLa cells with peptides in a 96-well plate (1×10^4 cells/well) for 24 hours.
Specifically, HeLa cells were cultured in DMEM at a condition of 37° C. with 5% CO2. The cells were respectively cultured in a cell culture plate, and then removed with trypsin. The cells were seeded at 1×10^4 cells per well in a 96-well plate. After 24 hours, the peptide was added to the media, and culture was performed again at a condition of 37° C. with 5% CO2 for 24 hours. 10 uL of WST-1 reagent was added per well, and reaction was allowed to proceed for 30 minutes at a condition of 37° C. with 5% CO2. Then, UV absorbance was measured at 450/700 nm with a 96-well plate reader.

Which “ratio of cell-penetrating ability to cytotoxicity (IC50^−1)” value (“ratio of cell-penetrating ability” below) (HeLa cells [1]) does the source give for `CC(=O)N[C@@H](CC(C)C)C(=O)N[C@@H](CCCCN)C(=O)N[C@@H](CCCCN)C(=O)N[C@@H](CC(C)C)C(=O)N[C@H]1CSSC[C@@H](C(=O)N[C@@H](CCCCN)C(=O)N[C@@H](CC(C)C)C(=O)N[C@@H](C)C(=O)NCC(N)=O)NC(=O)[C@H](CC(C)C)NC(=O)[C@H](CCCCN)NC(=O)[C@H](CCCCN)NC(=O)[C@H](CC(C)C)NC(=O)[C@H](CC(C)C)NC(=O)[C@H](CCCCN)NC(=O)[C@@H](NC(=O)[C@H](CC(C)C)NC(=O)[C@H](CCCCN)NC(=O)[C@H](CCCCN)NC(=O)[C@H](CC(C)C)NC(C)=O)CSSC[C@@H](C(=O)N[C@@H](CCCCN)C(=O)N[C@@H](CC(C)C)C(=O)N[C@@H](C)C(=O)NCC(N)=O)NC(=O)[C@H](CC(C)C)NC(=O)[C@H](CCCCN)NC(=O)[C@H](CCCCN)NC(=O)[C@H](CC(C)C)NC(=O)[C@H](CC(C)C)NC(=O)[C@H](CCCCN)NC1=O` [LK-3, reference compound] (HELM PEPTIDE1{[ac].L.K.K.L.C.K.L.L.K.K.L.C.K.L.A.G.[am]}|PEPTIDE2{[ac].L.K.K.L.C.K.L.L.K.K.L.C.K.L.A.G.[am]}$PEPTIDE1,PEPTIDE2,6:R3-13:R3|PEPTIDE1,PEPTIDE2,13:R3-6:R3$$$V2.0; bridges inferred) here?
The value was “about 130,000”.

And the ratio (HeLa cells [2])?
The ratio was 1.00.

Which ratio (HeLa cells [2]) does the source give for `CC(=O)N[C@@H](Cc1ccccc1)C(=O)N[C@H]1CSSC[C@@H](C(=O)N[C@@H](CCCCN)C(N)=O)NC(=O)[C@H](Cc2ccccc2)NC(=O)[C@H](CCCCN)NC(=O)[C@H](CCCCN)NC(=O)[C@H](Cc2ccccc2)NC(=O)[C@H](Cc2ccccc2)NC(=O)[C@H](CCCCN)NC(=O)[C@@H](NC(=O)[C@H](Cc2ccccc2)NC(C)=O)CSSC[C@@H](C(=O)N[C@@H](CCCCN)C(N)=O)NC(=O)[C@H](Cc2ccccc2)NC(=O)[C@H](CCCCN)NC(=O)[C@H](CCCCN)NC(=O)[C@H](Cc2ccccc2)NC(=O)[C@H](Cc2ccccc2)NC(=O)[C@H](CCCCN)NC1=O` [diFK10] (HELM PEPTIDE1{[ac].F.C.K.F.F.K.K.F.C.K.[am]}|PEPTIDE2{[ac].F.C.K.F.F.K.K.F.C.K.[am]}$PEPTIDE1,PEPTIDE2,3:R3-10:R3|PEPTIDE1,PEPTIDE2,10:R3-3:R3$$$V2.0; bridges inferred) here?
Its ratio is 2.11.

`CC[C@H](C)[C@H](NC(C)=O)C(=O)N[C@H]1CSSC[C@@H](C(=O)N[C@@H](CCCCN)C(N)=O)NC(=O)[C@H]([C@@H](C)CC)NC(=O)[C@H](CCCCN)NC(=O)[C@H](CCCCN)NC(=O)[C@H]([C@@H](C)CC)NC(=O)[C@H]([C@@H](C)CC)NC(=O)[C@H](CCCCN)NC(=O)[C@@H](NC(=O)[C@@H](NC(C)=O)[C@@H](C)CC)CSSC[C@@H](C(=O)N[C@@H](CCCCN)C(N)=O)NC(=O)[C@H]([C@@H](C)CC)NC(=O)[C@H](CCCCN)NC(=O)[C@H](CCCCN)NC(=O)[C@H]([C@@H](C)CC)NC(=O)[C@H]([C@@H](C)CC)NC(=O)[C@H](CCCCN)NC1=O` [diIK10] (HELM PEPTIDE1{[ac].I.C.K.I.I.K.K.I.C.K.[am]}|PEPTIDE2{[ac].I.C.K.I.I.K.K.I.C.K.[am]}$PEPTIDE1,PEPTIDE2,3:R3-10:R3|PEPTIDE1,PEPTIDE2,10:R3-3:R3$$$V2.0; bridges inferred) was tested. Which ratio (HeLa cells [2]) did it give?
The ratio was 2.57.

With `CC(=O)N[C@@H](CC(C)(C)C)C(=O)N[C@H]1CSSC[C@@H](C(=O)N[C@@H](CCCCN)C(N)=O)NC(=O)[C@H](CC(C)(C)C)NC(=O)[C@H](CCCCN)NC(=O)[C@H](CCCCN)NC(=O)[C@H](CC(C)(C)C)NC(=O)[C@H](CC(C)(C)C)NC(=O)[C@H](CCCCN)NC(=O)[C@@H](NC(=O)[C@H](CC(C)(C)C)NC(C)=O)CSSC[C@@H](C(=O)N[C@@H](CCCCN)C(N)=O)NC(=O)[C@H](CC(C)(C)C)NC(=O)[C@H](CCCCN)NC(=O)[C@H](CCCCN)NC(=O)[C@H](CC(C)(C)C)NC(=O)[C@H](CC(C)(C)C)NC(=O)[C@H](CCCCN)NC1=O` [diL*K10] (I: Ac-[tBuAla]CK[tBuAla][tBuAla]KK[tBuAla]CK-NH2 / II: Ac-[tBuAla]CK[tBuAla][tBuAla]KK[tBuAla]CK-NH2; disulfide I:2-II:9, I:9-II:2 (inferred)) as the molecule, how does the ratio (HeLa cells [2]) read?
The ratio was 2.32.

How did the ratio (HeLa cells [2]) turn out when `CC(=O)N[C@@H](CC(C)(C)C)C(=O)N[C@H]1CSSC[C@@H](C(=O)N[C@@H](CCCNC(=N)N)C(N)=O)NC(=O)[C@H](CC(C)(C)C)NC(=O)[C@H](CCCNC(=N)N)NC(=O)[C@H](CCCNC(=N)N)NC(=O)[C@H](CC(C)(C)C)NC(=O)[C@H](CC(C)(C)C)NC(=O)[C@H](CCCNC(=N)N)NC(=O)[C@@H](NC(=O)[C@H](CC(C)(C)C)NC(C)=O)CSSC[C@@H](C(=O)N[C@@H](CCCNC(=N)N)C(N)=O)NC(=O)[C@H](CC(C)(C)C)NC(=O)[C@H](CCCNC(=N)N)NC(=O)[C@H](CCCNC(=N)N)NC(=O)[C@H](CC(C)(C)C)NC(=O)[C@H](CC(C)(C)C)NC(=O)[C@H](CCCNC(=N)N)NC1=O` [diL*R10] (I: Ac-[tBuAla]CR[tBuAla][tBuAla]RR[tBuAla]CR-NH2 / II: Ac-[tBuAla]CR[tBuAla][tBuAla]RR[tBuAla]CR-NH2; disulfide I:2-II:9, I:9-II:2 (inferred)) was run?
The ratio was 3.11.

`CC(=O)N[C@@H](CC(C)(C)C)C(=O)N[C@H]1CSSC[C@@H](C(=O)N[C@@H](CCCCN)C(N)=O)NC(=O)[C@H](CC(C)(C)C)NC(=O)[C@H](CCCCN)NC(=O)[C@H](CCCCN)NC(=O)[C@H](CC(C)(C)C)NC(=O)[C@H](CC(C)(C)C)NC(=O)[C@H](CCCCN)NC(=O)[C@@H](NC(=O)[C@H](CC(C)(C)C)NC(C)=O)CSSC[C@@H](C(=O)N[C@@H](CCCCN)C(N)=O)NC(=O)[C@H](CC(C)(C)C)NC(=O)[C@H](CCCCN)NC(=O)[C@H](CCCCN)NC(=O)[C@H](CC(C)(C)C)NC(=O)[C@H](CC(C)(C)C)NC(=O)[C@H](CCCCN)NC1=O` [diNpgK10] (I: Ac-[tBuAla]CK[tBuAla][tBuAla]KK[tBuAla]CK-NH2 / II: Ac-[tBuAla]CK[tBuAla][tBuAla]KK[tBuAla]CK-NH2; disulfide I:2-II:9, I:9-II:2 (inferred)) was tested. Which “ratio of cell-penetrating ability” value (HeLa cells [1]) did it give?
Its value is “low toxicity as compared with cell-penetrating ability”.

`CC(=O)N[C@@H](CC(C)(C)C)C(=O)N[C@H]1CSSC[C@@H](C(=O)N[C@@H](CCCNC(=N)N)C(N)=O)NC(=O)[C@H](CC(C)(C)C)NC(=O)[C@H](CCCNC(=N)N)NC(=O)[C@H](CCCNC(=N)N)NC(=O)[C@H](CC(C)(C)C)NC(=O)[C@H](CC(C)(C)C)NC(=O)[C@H](CCCNC(=N)N)NC(=O)[C@@H](NC(=O)[C@H](CC(C)(C)C)NC(C)=O)CSSC[C@@H](C(=O)N[C@@H](CCCNC(=N)N)C(N)=O)NC(=O)[C@H](CC(C)(C)C)NC(=O)[C@H](CCCNC(=N)N)NC(=O)[C@H](CCCNC(=N)N)NC(=O)[C@H](CC(C)(C)C)NC(=O)[C@H](CC(C)(C)C)NC(=O)[C@H](CCCNC(=N)N)NC1=O` [diNpgR10] (I: Ac-[tBuAla]CR[tBuAla][tBuAla]RR[tBuAla]CR-NH2 / II: Ac-[tBuAla]CR[tBuAla][tBuAla]RR[tBuAla]CR-NH2; disulfide I:2-II:9, I:9-II:2 (inferred)) was tested. Which “ratio of cell-penetrating ability” value (HeLa cells [1]) did it give?
The value was “low toxicity as compared with cell-penetrating ability”.

How did the toxicity (HeLa cells [2]; even at 40 μM, data not shown) turn out when “diLH10: dimer of monomer LH10, AC-LCHLLHHLCH-NH2 (SEQ ID NO 14) (Ac-LCHLLHHLCH-NH2; also: dimer of two monomers linked by interchain disulfide bonds)” was run?
Its toxicity is “no toxicity was observed”.

How did the cell-penetrating ability (HeLa cells [1]; HeLa cells, flow cytometry, FIG. 4) turn out when “diLR10^C9Hcy: dimer of monomer LR10^C9Hcy, Ac-LCRLLRRLHcyR-NH2 (SEQ ID NO 43) (Ac-LCRLLRRL[hCys]R-NH2; also: dimer linked by intermolecular disulfides)” was run?
The cell-penetrating ability was “best results”.
